From US20240075093A1, “COMPOSITIONS AND METHODS OF TREATING A PI3K MEDIATED DISEASE” (VIRGINIA TECH INTELLECTUAL PROPERTIES, INC., priority 2020, published 2024)
Where no end group is shown, it is not given here.

How the values were obtained:
[1] = system: MDA-MB-435S cells; test: melanoma cell viability (CellTiter Blue); format: cell-based; details: 50 μM, 6 days, daily repeated dosing
Experimental: (§1) (FIG. 49A) Immunoblotting of p110s and signaling molecules. 3-actin (ACTB) was used as the loading control. (FIG. 49B) Summary of genetic mutations and protein levels in melanoma cells. Information regarding hot spot mutations was retrieved from e.g., DepMap. (FIG. 49C) Cells were treated with 0-40 μM of inhibitors. Cell viability was measured using CellTiter Blue. IC50s were calculated using Graphpad.
(§2) (FIG. 52A) Cells were treated with 10 μM Selectide-18-FITC for 1 h and imaged immediately or after 96h. (FIG. 52B) Selectide-18-FITC in melanoma cells were imaged at different times. FITC was quantified using Image J and FITC intensities at different times were normalized with that at 1 h. Half-life was calculated using GraphPad. (FIG. 52C) UACC-62, MelST, or MeWo cells were treated with 50 μM of Selectide-18 for 4 days with daily repeated dosing. (FIG. 52D) MelST or melanoma cells were treated with 50 μM of Selectide-18 for 6 days with daily repeated dosing. Cell viability was measured using Cell-Titer Blue. (FIG. 52E) MelST, UACC-62, or MeWo cells were treated with Scramble or Selectide-18 at different doses. IC50s were calculated using GraphPad. (FIG. 52F) Nod scid mice bearing UACC-62 subcutaneous tumors were treated with Selectide-18 (3 mg/kg) intratumoral injection/daily) for 16 days. Tumors were measured using a caliper and tumor volumes were calculated as (length×width2))/2. Student t test or ANOVA was used to determine P values. ns: not significant; **: P<0.01; ***P<0.001.

[2] = system: p110β^hyper cells; test: melanoma cell viability (CellTiter Blue); format: cell-based; details: 50 μM Selectide-18, 6 days, daily repeated dosing
Experimental: as §1, §2

[3] = system: melanocyte MelST; format: cell-based
Experimental: as §1, with “(FIG. 49C) Cells were treated with 0-40 μM of inhibitors.” left out
as §2, with “Student t test or ANOVA was used to determine P values. ns: not significant; **: P<0.01; ***P<0.001.” left out

[4] = system: other melanoma cells; test: melanoma cell viability (CellTiter Blue); format: cell-based; details: 50 μM Selectide-18, 6 days, daily repeated dosing
Experimental: as §2

[5] = system: PI3K in MeWo cells; test: PI3K activity after Selectide-18; format: cell-based; details: 50 μM, 4 days, daily repeated dosing
Experimental: as §2

[6] = system: PI3K in MelST cells; test: PI3K activity after Selectide-18; format: cell-based; details: 50 μM, 4 days, daily repeated dosing
Experimental: as §2

[7] = system: PI3K in UACC-62 cells; test: PI3K activity after Selectide-18; format: cell-based; details: 50 μM, 4 days, daily repeated dosing
Experimental: as §2

[8] = uptake and intracellular half-life of Selectide-18-FITC; format: cell-based; details: human, SKMEL-147 melanoma cells (intracellular); FITC intensity normalized to 1 h; read-out: half-life (HL) in cells (converted)
Experimental: as §2

[9] = intracellular half-life of Selectide-18-FITC; format: cell-based; details: human, UACC-62 melanoma cells (intracellular); FITC intensity normalized to 1 h; read-out: half-life (HL) in cells (converted)
Experimental: as §2

[10] = system: UACC-62 xenografts; test: UACC-62 subcutaneous xenograft; format: in vivo, Nod scid mice; details: 3 mg/kg, intratumoral injection daily, 16 days
Experimental: as §2

[11] = system: U87MG cells; test: MTS cell viability assay; format: cell-based, human; details: 20 μM TGX-221/50 μM TMZ plus αCT1
Experimental: Cell viability was measured by the MTS assay. P values were determined using the student t test or one-way ANOVA. Error bars represent three independent experiments.
Cell viability was determined using the MTS viability assay. The vehicle DMSO was the control and set as 100%. Treated cells were normalized to DMSO-treated cells. […] (FIG. 43D) Scores of Excess Over Bliss in FIG. 43C calculated using the Bliss Independence model. One-way ANOVA and student t test were used to determine statistical significance.
Cell viability was determined by the MTS cell viability assay (Promega) as described previously 21,24-27. In brief, 250 to 1,000 cells were plated in the wells of a 96-well plate-based upon the cell growth rate. Because the drug treatment usually takes 6-7 days, fast-growing cells could be over-grown if plated at a high cell density. For αCT1 treatment experiments, Applicant intended to plate cells at a low density to minimize the formation of gap junctions, and thus, more Cx43-hemichannels can be present. […] At each hour time point, the absorbance at 490 nm was measured using a FilterMax F3 microplate reader (Molecular Devices, LLC) according to the manufacturer's instructions. Percent cell viability was obtained by dividing the absorbance of treatment groups to those of untreated and respective vehicle control groups.

[12] = half-life of αCT1; format: in vitro ADME; details: cell culture treatment

Row | Sequence | sensitivity to Selectide-18 [1] | cell viability [2] | IC50 [3] | cell viability [4] | PI3K activity [5] | PI3K activity [6] | PI3K activity [7] | half-life [8] | half-life [9] | in vivo growth of xenografts [10] | cytotoxic effect of TMZ/TGX-221 double combination upon addition of αCT1 [11] | half-life [12]
1 | TKKSTKTINPSKYQTIRK [Selectide-18] | sensitive | suppressed the viability | ~2000 µM | without affecting | not | not | inactivated PI3K | 138 h | 77 h | blocked the in vivo growth | – | –
2 | RQPKIWFPNRRKPWKKRPRPDDLEI [αCT1] | – | – | – | – | – | – | – | – | – | – | greatly increased the cytotoxic effect | ~48 h
